Source: patent US6512006B1, “HIV protease inhibitors” (Warner-Lambert Company, priority 1999, dated 2003)

Key:
[1] = molecular target: T1, Recombinant HIV-1 protease (Human immunodeficiency virus type 1 group M subtype B, UniProt P04585); test: HIV Protease Assay (Ki); assay type: biochemical; conditions: Inhibition of HIV Protease Ki, pH 6.2, 37° C., 40 μM substrate III
T1 construct: Recombinant HIV-1 protease (>96% purity); purchased Bachem Bioscience, Inc. (King of Prussia, Pa.)
Method: Recombinant HIV-1 protease (>96% purity) and HIV protease substrate III (the undecapeptide H-His-Lys-Ala-Arg-Val-Leu-Nph-Glu-Ala-Nle-Ser-NH2, 97% purity) were purchased from Bachem Bioscience, Inc. (King of Prussia, Pa.).
The methods employed follow the procedures of Tummino, et al., Archives of Biochemistry and Biophysics, 1995;316:523). […] (total volume, […]). […] The final inhibitor concentrations used were 0 (0.1, 0.2, in some experiments), 0.5, 1, 2, 5, 10, 20, 50, and 100 μM. The solution was mixed, incubated for 5 minutes and the reaction quenched by addition of trifluoracetic acid, 2% final. The (leu-p-nitro-phe) bond of the substrate is cleaved by the enzyme and substrate and products separated by reverse-phase HPLC (high pressure liquid chromatography). Absorbance was measured at 220 nm, peak areas determined, and percentage conversion to product used to calculate percentage control (=[% conversion (+inhibitor)/% conversion (−inhibitor)]×100).
Ki means inhibitory constant; it approximately the equilibrium binding constant for the binding of the inhibitor to the free enzyme.

[2] = test system: HIV infected lymphocyte derived CEM cells; test: Cellular Infection Assay, XTT cytopathic procedure in CEM cells (antiviral efficacy); assay type: cell-based; conditions: Human immunodeficiency virus 1, CCRF-CEM, read-out: Antiviral Efficacy EC50, CEM cells, 50% protection against HIV cytopathic effects
Method: Compounds were tested in lymphocyte derived CEM cells using the XTT cytopathic procedures and were performed at Southern Research Institute (Buckheit, et al., Antiviral Res., 1993;21:247; see also Weislow, et al., J. Nat. Cancer Inst., 1989;81:577). Compound concentrations were 0.32, 1, 3.2, 10, 32, and 100 μM. The EC50 represents the concentration of agent, which reduces HIV cytopathic effects 50% relative to untreated control. Cellular toxicity of the agents are estimated from the TC50 which represents the concentration of the agent which inhibits 50% of the viability of uninfected cells.
EC50 indicates the concentration of the drug which provide 50% protection against HIV.

[3] = Cellular toxicity in uninfected CEM cells (XTT); assay type: cell-based; conditions: human, uninfected CEM cells (lymphocyte derived), cytotoxicity in 50% of uninfected CEM cells; read-out: TC50 (the source's name)
Method: Compound concentrations were 0.32, 1, 3.2, 10, 32, and 100 μM.

| Compound | melting point [°C] | Ki [1] [nM] | EC50 [2] [nM] | CC50 [3] [nM] |
| --- | --- | --- | --- | --- |
| CCCN(C1=C(O)CC(CCc2ccc(O)cc2)(C2CCCC2)OC1=O)c1cccc(NS(=O)(=O)c2ccc(C(F)(F)F)cn2)c1 (stereo not shown) | 104 to 106 |  |  |  |
| CCCN(C1=C(O)CC(CCc2ccccc2)(C(C)C)OC1=O)c1cccc(NS(=O)(=O)c2ccc(C(F)(F)F)cn2)c1 (stereo not shown) [Example 1, 5-Trifluoromethyl-pyridine-2-sulfonic acid {3-[(4-hydroxy-6-isopropyl-2-oxo-6-phenethyl-5,6-dihydro-2H-pyran-3-yl)-propyl-amino]-phenyl}-amide] |  | 0.029 | 700 | 63000 |
| CCCC1(CCc2ccc(O)cc2)CC(O)=C(N(CC)c2cccc(NS(=O)(=O)c3ccc(C(F)(F)F)cn3)c2)C(=O)O1 (stereo not shown) [Example 5, 5-Trifluoromethyl-pyridine-2-sulfonic acid [3-(ethyl-{4-hydroxy-6-[2-(4-hydroxy-phenyl)-ethyl]-2-oxo-6-propyl-5,6-dihydro-2H-pyran-3-yl}-amino)-phenyl]-amide] |  | 0.17 | 1300 | 113000 |
| CCCCN(C1=C(O)CC(CCc2cccc(O)c2)(C2CCCC2)OC1=O)c1ccccc1 (stereo not shown) | 64 to 66 |  |  |  |
| CCN(C1=C(O)CC(CCc2ccc(O)cc2)(C(C)C)OC1=O)c1cccc(NS(=O)(=O)c2ccc(C(F)(F)F)cn2)c1 (stereo not shown) [Example 6, 5-Trifluoromethyl-pyridine-2-sulfonic acid [3-(ethyl-{4-hydroxy-6-[2-(4-hydroxy-phenyl)-ethyl]-6-isopropyl-2-oxo-5,6-dihydro-2H-pyran-3-yl}-amino)-phenyl]-amide] |  | 0.44 | 1300 | 133000 |
| O=C1OC(CCc2cccc(O)c2)(C2CCCC2)CC(O)=C1N(c1ccccc1)c1ccccc1 (stereo not shown) | 90 to 92 |  |  |  |
| CCCN(C1=C(O)CC(CCc2ccc(O)cc2)(C2CC2)OC1=O)c1ccccc1 (stereo not shown) | 74 to 75 |  |  |  |
| CCCN(C1=C(O)CC(CCc2ccc3c(c2)OCO3)(C(C)C)OC1=O)c1ccccc1 (stereo not shown) | 93 to 95 |  |  |  |
| CCCN(C1=C(O)CC(CCc2cccc(O)c2)(C2CCCC2)OC1=O)c1ccccc1 (stereo not shown) [Example 8, 6-Cyclopentyl-4-hydroxy-6-[2-(3-hydroxy-phenyl)-ethyl]-3-(phenyl-propyl-amino)-5,6-dihydro-pyran-2-one] | 74 to 76 | 0.35 | 1300 | 67000 |
| CCCCN(C1=C(O)CC(CCc2ccc(O)cc2)(C(C)C)OC1=O)c1ccccc1 (stereo not shown) [15] | 69 to 71 |  |  |  |
| CCCN(C1=C(O)CC(CCc2ccc(N)cc2)(C(C)C)OC1=O)c1cccc(NS(=O)(=O)c2ccc(C(F)(F)F)cn2)c1 (stereo not shown) | 170 to 172 |  |  |  |
| CCCCN(C1=C(O)CC(CCc2ccc(O)cc2)(C(C)C)OC1=O)c1ccccc1 (stereo not shown) [Example 13, 3-(Butyl-phenyl-amino)-4-hydroxy-6-[2-(4-hydroxy-phenyl)-ethyl]-6-isopropyl-5,6-dihydro-pyran-2-one] | 196 to 198 | 0.2 | 1500 | 156000 |
| CC(C)C1(CCc2ccc(O)cc2)CC(O)=C(N(CCC#N)c2ccccc2)C(=O)O1 (stereo not shown) [Example 21, 3-({4-Hydroxy-6-[2-(4-hydroxy-phenyl)-ethyl]-6-isopropyl-2-oxo-5,6-dihydro-2H-pyran-3-yl}-phenyl-amino)-propionitrile] | 119 to 121 | 1.6 | 2700 | 320000 |
| CCCN(C1=C(O)CC(CCc2ccsc2)(C(C)C)OC1=O)c1ccccc1 (stereo not shown) | 53 to 55 |  |  |  |
| CCCN(C1=C(O)CC(CCc2ccc(O)cc2)(C(C)C)OC1=O)c1cccc(NS(=O)(=O)c2ccc(C(F)(F)F)cn2)c1 (stereo not shown) [Example 4, 5-Trifluoromethyl-pyridine-2-sulfonic acid [3-({4-hydroxy-6-[2-(4-hydroxy-phenyl)-ethyl]-6-isopropyl-2-oxo-5,6-dihydro-2H-pyran-3-yl}-propyl-amino)-phenyl]-amide] |  | 0.01 | 1100 | 84000 |
| CCCN(C1=C(O)CC(CCc2ccccc2)(C(C)C)OC1=O)c1ccccc1 (stereo not shown) | 160 to 162 |  |  |  |
| CCCN(C1=C(O)CC(CCc2ccc(O)cc2)(C2CCCC2)OC1=O)c1ccccc1 (stereo not shown) | 95 |  |  |  |
| CCCN(C1=C(O)CC(CCc2ccc(O)cc2)(C(C)C)OC1=O)c1cc(Cl)cc(Cl)c1 (stereo not shown) | 86 to 88 |  |  |  |
| CCN(C1=C(O)CC(CCc2ccccc2)(C(C)C)OC1=O)c1cccc(NS(=O)(=O)c2ccc(C(F)(F)F)cn2)c1 (stereo not shown) [Example 3, 5-Trifluoromethyl-pyridine-2-sulfonic acid {3-[ethyl-(4-hydroxy-6-isopropyl-2-oxo-6-phenethyl-5,6-dihydro-2H-pyran-3-yl)-amino]-phenyl}-amide] |  | 0.96 | 1100 | 66000 |

The next lines start with results.

| melting point [°C] | Compound | Ki [1] [nM] | EC50 [2] [nM] | CC50 [3] [nM] |
| --- | --- | --- | --- | --- |
| 70 to 72 | CC(C)CCN(C1=C(O)CC(CCc2ccc(O)cc2)(C(C)C)OC1=O)c1ccccc1 (stereo not shown) |  |  |  |
| 71 to 73 | CCCN(C1=C(O)CC(CCc2ccc(O)cc2)(C(C)C)OC1=O)c1cccc(CO)c1 (stereo not shown) [32] |  |  |  |
| 102 to 104 | CC(C)C1(CCc2ccc(O)cc2)CC(O)=C(N(c2ccccc2)C2CC2)C(=O)O1 (stereo not shown) |  |  |  |
| 95 to 97 | CC(C)C1(CCc2ccc(O)cc2)CC(O)=C(N(c2ccccc2)c2cccc(O)c2)C(=O)O1 (stereo not shown) |  |  |  |
| 85 to 86 | CC(C)C1(CCc2ccc(O)cc2)CC(O)=C(N(CCO)c2ccccc2)C(=O)O1 (stereo not shown) |  |  |  |
| 86 to 88 | CCN(C1=C(O)CC(CCc2ccc(O)cc2)(C(C)C)OC1=O)c1cccc2ccccc12 (stereo not shown) |  |  |  |
| 96 to 98 | CCCN(C1=C(O)CC(CCc2ccc(O)cc2)(C(C)C)OC1=O)c1cccc(C(=O)OC)c1 (stereo not shown) |  |  |  |
| 179 to 181 | CCCN(C1=C(O)CC(C)(CCc2ccc(O)cc2)OC1=O)c1ccccc1 (stereo not shown) |  |  |  |
| 61 to 63 | CCCN(C1=C(O)CC(CCc2ccc(O)cc2)(C(C)C)OC1=O)c1cccc(CO)c1 (stereo not shown) [19] |  |  |  |
| 75 to 77 | CC(C)N(C1=C(O)CC(CCc2ccc(O)cc2)(C(C)C)OC1=O)c1ccccc1 (stereo not shown) |  |  |  |
| 104 to 106 | CC(C)C1(CCc2ccc(O)cc2)CC(O)=C(N(c2ccccc2)C2CCCCC2)C(=O)O1 (stereo not shown) |  |  |  |
| 97 to 99 | CCN(C1=C(O)CC(CCc2ccc(O)cc2)(C(C)C)OC1=O)c1ccc2ccccc2c1 (stereo not shown) |  |  |  |
| 83 to 85 | CC(C)C1(CCc2ccc(O)cc2)CC(O)=C(N(c2ccccc2)C2CCCC2)C(=O)O1 (stereo not shown) |  |  |  |
| 58 to 60 | CCCCC1(CCc2ccc(O)cc2)CC(O)=C(N(CCC)c2ccccc2)C(=O)O1 (stereo not shown) |  |  |  |
| 93 to 96 | CCCN(C1=C(O)CC(CCc2ccc(O)cc2)(C(C)C)OC1=O)c1cccc2c(O)cccc12 (stereo not shown) |  |  |  |
| 85 to 87 | CCCN(C1=C(O)CC(CCc2ccc(O)cc2)(C(C)C)OC1=O)c1cccc(NS(=O)(=O)c2cccs2)c1 (stereo not shown) |  |  |  |
| 63 to 65 | CCN(C1=C(O)CC(CCc2ccc(O)cc2)(C(C)C)OC1=O)c1ccccc1 (stereo not shown) |  |  |  |
| 95 to 96 | COc1ccc(N(C2=C(O)CC(CCc3ccc(O)cc3)(C(C)C)OC2=O)c2ccccc2)cc1 (stereo not shown) |  |  |  |
| 83 to 85 | CC(C)C1(CCc2ccc(O)cc2)CC(O)=C(N(c2ccccc2)c2ccccc2)C(=O)O1 (stereo not shown) |  |  |  |
| 75 to 77 | CC(C)C1(CCc2ccc(O)cc2)CC(O)=C(N(Cc2ccccc2)c2ccccc2)C(=O)O1 (stereo not shown) |  |  |  |
